“And” between values parts separate entries of the source, which are not always exact repeats. Equal values may be shown once.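 All cell lines were grown in 96-well plates and treated with compound for 48 hours. Abbreviation: GI50, concentration required for 50% inhibition of growth. At the TGI there is no net growth.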
Columns and labels:
Assay in all cases: inhibition of tumour cell growth, NCI panel, 48 h
[1] = system: 786-0 renal
[2] = system: A498 renal
[3] = system: A549 NSCLC
[4] = system: ACHN renal
[5] = system: BT-549 breast
[6] = system: CAKI-1 renal
[7] = system: CCRF-CEM leukemia
[8] = system: COLO 205 colon
[9] = system: DU-145 prostate
[10] = system: EKVX NSCLC
[11] = system: HCC-2998 colon
[12] = system: HCT-116 colon
[13] = system: HCT-15 colon
[14] = system: HL-60(TB) leukemia
[15] = system: HOP-62 NSCLC
[16] = system: HOP-92 NSCLC
[17] = system: HS 578T breast
[18] = system: HT29 colon
[19] = system: IGROV1 ovarian
[20] = system: K-562 leukemia
[21] = system: KM12 colon
[22] = system: LOX IMVI melanoma
[23] = system: M14 melanoma
[24] = system: MALME-3M melanoma
[25] = system: MCF7 breast
[26] = system: MDA-MB-231 breast
[27] = system: MDA-MB-435

CC(C)[C@]12O[C@H]1[C@@H]1O[C@]13[C@]1(O[C@H]1C[C@H]1C4=C(CC[C@@]13C)C(=O)OC4)[C@@H]2O showed a GI50 [1] of 30.3 nM, a TGI [1] of over 100000 nM and a GI50 [2] of 27.4 nM. The TGI [2] was 45.4 nM and 82.8 nM, the GI50 [3] was 27.6 nM and 24.6 nM and the TGI [3] was over 100000 nM. For the same compound, the GI50 [4] was 10.2 nM, the TGI [4] was over 100000 nM and the GI50 [5] was 21.4 nM and < 13 nM. The TGI [5] was 178 nM and 34.7 nM, the GI50 [6] was 11.1 nM and < 10 nM and the TGI [6] was over 100000 nM. For the same compound, the GI50 [7] was 25.5 nM, the TGI [7] was 297 nM and the GI50 [8] was 11.7 nM. For the same compound, the TGI [8] was 21.9 nM and 36.6 nM, the GI50 [9] was 16.3 nM and the TGI [9] was over 100000 nM. The GI50 [10] was 16.6 nM, the TGI [10] was 99.4 nM and 283 nM and the GI50 [11] was 21.2 nM. For the same compound, the TGI [11] was 91.2 nM and 761 nM, the GI50 [12] was under 10 nM and the TGI [12] was over 100000 nM. It also gave a GI50 [13] of 12.2 nM, a TGI [13] of over 2930 nM and a GI50 [14] of under 11.1 nM. It also gave a TGI [14] of 49.5 nM, a GI50 [15] of 24.8 nM and a GI50 [16] of 20.1 nM. The TGI [16] was 107 nM and 80.8 nM, the TGI [17] was 55.4 nM and 71.8 nM and the GI50 [18] was 29 nM. It also gave a TGI [18] of over 100000 nM, a GI50 [19] of 25.7 nM and a TGI [19] of over 100000 nM. It also gave a GI50 [20] of 15.1 nM, a TGI [20] of over 100000 nM and a GI50 [21] of 102 nM. For the same compound, the GI50 [22] was under 10 nM, the TGI [22] was 25.1 nM and the GI50 [23] was 15.8 nM. For the same compound, the TGI [23] was 31.2 nM and 36.1 nM, the GI50 [24] was 18 nM and the TGI [24] was 32.8 nM and 46.7 nM. For the same compound, the GI50 [25] was under 10 nM, the GI50 [26] was 16.8 nM and the TGI [26] was 116 nM. The GI50 [27] was 12.2 nM and the TGI [27] was 21.4 nM and 29.6 nM.

Reference: PubChem BioAssay (NCI)
